The source of these data is BindingDB's records for doi:10.3109/14756366.2013.823957 (National Tsing Hua University, 2014).

Cathepsin S, sequence (P25774 whole entry): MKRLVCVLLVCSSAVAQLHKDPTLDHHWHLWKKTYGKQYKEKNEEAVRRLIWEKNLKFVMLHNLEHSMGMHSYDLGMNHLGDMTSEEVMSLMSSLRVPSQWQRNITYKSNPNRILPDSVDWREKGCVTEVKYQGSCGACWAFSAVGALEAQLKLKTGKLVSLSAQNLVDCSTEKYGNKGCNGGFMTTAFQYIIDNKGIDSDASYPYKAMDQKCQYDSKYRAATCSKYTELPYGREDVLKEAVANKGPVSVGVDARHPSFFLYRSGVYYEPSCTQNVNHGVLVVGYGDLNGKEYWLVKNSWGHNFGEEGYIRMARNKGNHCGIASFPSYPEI

In the experiment the target is Cathepsin S (Homo sapiens, UniProt P25774). Briefly: Cathepsin Activity Assay. The following applies: pH 6.5; 25 °C. The procedure:
A microplate-based screening procedure was used to study the effect of inhibition of re-Cat S, re-Cat L and re-Cat K on several compounds. The assays were performed in quadruplicates at 25 °C in a buffer containing 50 mM MES, pH 6.5, 2.5 mM EDTA and 1 mM DTT for re-Cat S, or 100 mM NaOAc, pH 5.5, 1 mM DTT and 2 mM EDTA for re-Cat L, or 50 mM MES, pH 5.5, 5 mM DTT and 2.5 mM EDTA for re-Cat K. Each of tested compounds at 100 nM was incubated with 50 nM re-Cat S, 31.25 pM re-Cat L or 10 nM re-Cat K at 37 °C for 10 min before initiating the reaction with the addition of 5 μM relevant substrate (Z-Phe-Arg-AMC for Cat L and Cat K, and Z-Val-Val-Arg-AMC for Cat S), respectively [Ward et al., J. Med. Chem., 45:5471-82]. Reactions in microplates were kept at 37 °C for another 30 min and then to collect the fluorescent signals from each well in microplates. E64 and 1% DMSO were applied as positive and solvent control, respectively. Fluorimetric assays were performed at 37 °C on a Perkin Elmer LS55 fluorescence spectrophotometer (Waltham, MA) with excitation at 370 nm and emission at 460 nm wavelengths. The inhibitory ability of a tested compound was determined by decreased fluorescence compared to DMSO control.
Broadly, the IC50 is the midpoint of a concentration-inhibition curve. A lower IC50 goes with greater potency in that assay. `CCOC(=O)CNC(=O)C(=O)C(COCc1ccccc1)NC(=O)C(CC1CCCCC1)NC(=O)N1CCOCC1` (stereo not drawn) [Cathepsin S inhibitor alpha-ketoamide, 6a]: the IC50 was 4.4 nM.

In turn, `CCOC(=O)CNC(=O)C(=O)C(COCc1ccccc1)NC(=O)C(CC1CCCCC1)NC(=O)c1cccc([N+](=O)[O-])c1` (stereo not drawn) [Cathepsin S inhibitor alpha-ketoamide, 6b] had an IC50 of 2 nM.

The compound `CCOC(=O)CNC(=O)C(=O)C(COCc1ccccc1)NC(=O)C(CC1CCCCC1)NC(=O)c1cc(OC)ccc1[N+](=O)[O-]` (stereo not drawn) [Cathepsin S inhibitor alpha-ketoamide, 6e] registered an IC50 of 3.1 nM.

The compound `CCOC(=O)CNC(=O)C(=O)C(COCc1ccccc1)NC(=O)C(CC1CCCCC1)NC(=O)c1ccc(C(=O)OC)c(NC(=O)OC(C)(C)C)c1` (stereo not drawn) [Cathepsin S inhibitor alpha-ketoamide, 6n] came in with an IC50 of 49.2 nM.

The compound `CCOC(=O)CNC(=O)C(=O)C(COCc1ccccc1)NC(=O)C(CC1CCCCC1)NC(=O)c1ccc(C(=O)OC)c(N)c1` (stereo not drawn) [Cathepsin S inhibitor alpha-ketoamide, 6p] came in with an IC50 of 5.8 nM.

`CCOC(=O)CNC(=O)C(=O)C(COCc1ccccc1)NC(=O)C(CC1CCCCC1)NC(=O)c1cccc2c1C(=O)c1ccccc1-2` (stereo not drawn) [Cathepsin S inhibitor alpha-ketoamide, 6r] yielded an IC50 of 8.8 nM.

For the compound `CC(C)(C)CC(C)(C)NC(=O)C(=O)C(COCc1ccccc1)NC(=O)C(CC1CCCCC1)NC(=O)N1CCOCC1` (stereo not drawn) [Cathepsin S inhibitor alpha-ketoamide, 6w], the IC50 was determined as 3.1 nM.
